Test results from the Deep4Chem optical property database.
Each block holds one molecule with its values, some of them ahead of it.

Experiment: photoluminescence quantum yield (fraction); solvent given as SMILES

SMILES: CCCCCCCCOc1ccc2c3cccc4c(OCCCCCCCC)ccc(c5cccc1c52)c43
photoluminescence quantum yield (in C1CCOC1): 0.94 | photoluminescence quantum yield (in Cc1ccccc1): 0.9 | photoluminescence quantum yield (in ClC(Cl)(Cl)Cl): 0.08 | photoluminescence quantum yield (in ClC(Cl)Cl): 0.69 | photoluminescence quantum yield (in ClCCl): 0.81 | photoluminescence quantum yield (in c1ccncc1): 0.9

SMILES: CCCCN1C(=O)c2cc(Oc3ccc(C(C)(C)C)cc3)c3c4c(Oc5ccc(C(C)(C)C)cc5)cc5c(=O)[nH]/c(=C\c6ccc7ccccc7n6)c6cc(Oc7ccc(C(C)(C)C)cc7)c(c7c(Oc8ccc(C(C)(C)C)cc8)cc(c2c37)C1=O)c4c56
photoluminescence quantum yield (in C1CCOC1): 0.3 | photoluminescence quantum yield (in Cc1ccccc1): 0.313 | photoluminescence quantum yield (in ClCCl): 0.332

SMILES: C1=Nc2cccc3cccc(c23)N1
photoluminescence quantum yield (in CC#N): 0.0013 | photoluminescence quantum yield (in CO): 0.0005 | photoluminescence quantum yield (in CS(C)=O): 0.0031 | photoluminescence quantum yield (in Cc1ccccc1): 0.005

SMILES: COc1ccc(-n2nc(C#N)c(NC3CCCCC3)n2)cc1
photoluminescence quantum yield (in CC#N): 0.956

SMILES: CCCCCCCCCCCCCCCCCCN1C(=O)c2ccc3c4ccc5c6c(ccc(c7ccc(c2c37)C1=O)c64)C(=O)NC5=O
photoluminescence quantum yield (in CN(C)C=O): 0.37

SMILES: CCCCCCCCC1(CCCCCCCC)c2ccccc2-c2ccc(-c3nnc(-c4ccc(-n5c6ccc(C(C)(C)C)cc6c6cc(C(C)(C)C)ccc65)cc4)o3)cc21
photoluminescence quantum yield (in Cc1ccccc1): 0.88

SMILES: C[C@]12SC(=O)C=C1c1nc(-c3ccc(Cl)cc3Cl)[nH]c1C1=CC(=O)S[C@@]12C
photoluminescence quantum yield (in CC#N): 0.11

SMILES: O=P1(c2ccccc2)c2ccc(N3c4ccccc4Oc4ccccc43)cc2-c2cc(N3c4ccccc4Oc4ccccc43)ccc21
photoluminescence quantum yield (in Cc1ccccc1): 0.83 | photoluminescence quantum yield (in c1ccc2c(c1)c1ccccc1n2-c1ccc(-c2ccc(-n3c4ccccc4c4ccccc43)cc2)cc1): 0.8

SMILES: COc1cc(C2=C(c3cc(OC)c(OC)c(OC)c3)C(c3ccc(C(C)(C)C)cc3)=[N+]3C2=Nc2c(-c4cc(OC)c(OC)c(OC)c4)c(-c4cc(OC)c(OC)c(OC)c4)c(-c4ccc(C(C)(C)C)cc4)n2[B-]3(F)F)cc(OC)c1OC
photoluminescence quantum yield (in Cc1ccccc1): 0.001

SMILES: COc1ccc(N(c2ccc(OC)cc2)c2ccc3c(c2)C2(c4cc(N(c5ccc(OC)cc5)c5ccc(OC)cc5)ccc4C=C3)c3ccccc3-c3ccccc32)cc1
photoluminescence quantum yield (in ClCCl): 0.9

SMILES: Cc1cc(C)c(B(c2cc3ccc4cccc5ccc(c2)c3c45)c2c(C)cc(C)cc2C)c(C)c1
photoluminescence quantum yield (in Cc1ccccc1): 0.68

SMILES: COc1ccc2n1[B-](F)(F)[N+]1=C(c3ccccc3)C=CC1=C2c1ccc(C)cc1
photoluminescence quantum yield (in C1CCCCC1): 0.28 | photoluminescence quantum yield (in C1CCOC1): 0.3 | photoluminescence quantum yield (in C1COCCO1): 0.36 | photoluminescence quantum yield (in CCOC(C)=O): 0.28 | photoluminescence quantum yield (in CO): 0.23 | photoluminescence quantum yield (in Cc1ccccc1): 0.51 | photoluminescence quantum yield (in ClC(Cl)Cl): 0.38

SMILES: CC(C)(C)c1ccc2oc3nc4oc5ccc(-n6c7ccccc7c7cc(-n8c9ccccc9c9ccccc98)ccc76)cc5c4cc3c2c1
photoluminescence quantum yield (in ClC(Cl)Cl): 0.15

SMILES: COc1ccc([C@@H]2C[C@](O)(c3ccccn3)C[C@](O)(c3ccccn3)[C@H]2C(=O)c2ccc(N(c3ccccc3)c3ccccc3)cc2)cc1
photoluminescence quantum yield (in C1CCOC1): 0.5 | photoluminescence quantum yield (in CC#N): 0.02 | photoluminescence quantum yield (in CCO): 0.01 | photoluminescence quantum yield (in CCOC(C)=O): 0.42 | photoluminescence quantum yield (in CN(C)C=O): 0.03 | photoluminescence quantum yield (in ClCCl): 0.26 | photoluminescence quantum yield (in c1ccccc1): 0.93

SMILES: CCCCN1C(=O)c2cccc3c(N(C)C)ccc(c23)C1=O
photoluminescence quantum yield (in Cc1ccccc1): 0.95

SMILES: COc1ccc(-c2nc(-c3cccc(OC)c3)[nH]c2-c2ccc(OC)cc2)cc1
photoluminescence quantum yield (in CO): 0.25

SMILES: CCCCCCC(CCCCCC)N1C(=O)c2cccc3c(-c4ccc(OC)c5cccc(C)c45)ccc(c23)C1=O
photoluminescence quantum yield (in CCCCCC): 0.34 | photoluminescence quantum yield (in CCCCCCCCCCCCCC): 0.34 | photoluminescence quantum yield (in CCCCCCCCCCCO): 0.28 | photoluminescence quantum yield (in CCCCO): 0.047 | photoluminescence quantum yield (in CN(C)C=O): 0.055 | photoluminescence quantum yield (in Cc1ccccc1): 0.19 | photoluminescence quantum yield (in ClC(Cl)Cl): 0.4

SMILES: CCn1c2ccccc2c2cc(C#Cc3cc(C#Cc4ccc5c(c4)c4ccccc4n5CC)ncn3)ccc21
photoluminescence quantum yield (in C1CCOC1): 0.74 | photoluminescence quantum yield (in CCOC(C)=O): 0.83 | photoluminescence quantum yield (in CN(C)C=O): 0.68 | photoluminescence quantum yield (in Cc1ccccc1): 0.84 | photoluminescence quantum yield (in ClCCl): 0.72

SMILES: COCCOc1ccc(OCCOC)c(C=O)c1
photoluminescence quantum yield (in CC(C)(C)O): 0.13 | photoluminescence quantum yield (in CC(C)CO): 0.21 | photoluminescence quantum yield (in CC(C)O): 0.21 | photoluminescence quantum yield (in CCCCO): 0.23 | photoluminescence quantum yield (in CCCO): 0.25 | photoluminescence quantum yield (in CCO): 0.2 | photoluminescence quantum yield (in CN(C)C=O): 0.03 | photoluminescence quantum yield (in CNC=O): 0.14 | photoluminescence quantum yield (in CO): 0.24 | photoluminescence quantum yield (in NC=O): 0.44 | photoluminescence quantum yield (in O): 0.11

SMILES: COc1ccc(C#Cc2nc3ccccc3nc2-c2cn(C)c3ccccc23)cc1
photoluminescence quantum yield (in C1CCOC1): 0.19 | photoluminescence quantum yield (in CC#N): 0.13 | photoluminescence quantum yield (in CC(C)=O): 0.16 | photoluminescence quantum yield (in CC(C)O): 0.02 | photoluminescence quantum yield (in CCO): 0.01 | photoluminescence quantum yield (in CCOC(C)=O): 0.17 | photoluminescence quantum yield (in CO): 0.01 | photoluminescence quantum yield (in Cc1ccccc1): 0.3 | photoluminescence quantum yield (in ClCCl): 0.19

SMILES: CCOC(CN1C(=O)C2=C(c3cc4cc(C(C)(C)C)cc(C(C)(C)C)c4o3)N(CC(OCC)OCC)C(=O)C2=C1c1cc2cc(C(C)(C)C)cc(C(C)(C)C)c2o1)OCC
photoluminescence quantum yield (in ClC(Cl)Cl): 0.75

SMILES: O=c1[nH]c2[n+](c3ccccc13)[B-](F)(F)Oc1ccccc1-2
photoluminescence quantum yield (in CC#N): 0.201 | photoluminescence quantum yield (in Cc1ccccc1): 0.24

SMILES: C[Si](C)(C)C#C[Si](c1c2ccccc2cc2ccccc12)(c1c2ccccc2cc2ccccc12)c1c2ccccc2cc2ccccc12
photoluminescence quantum yield (in ClC(Cl)Cl): 0.04

SMILES: COc1ccc(C2=C3C=C(/C=C/C(=O)OC(C)(C)C)C=[N+]3[B-](F)(F)n3cccc32)cc1
photoluminescence quantum yield (in ClCCl): 0.13

SMILES: COc1ccc(C2=C(c3ccc(C)cc3)C(c3ccccc3)=[N+]3C2=Nc2c(-c4ccc(OC)cc4)c(-c4ccc(C)cc4)c(-c4ccccc4)n2[B-]3(F)F)cc1
photoluminescence quantum yield (in Cc1ccccc1): 0.01

SMILES: c1ccc(-c2nn(-c3ccccc3)c3nc4ccccc4cc23)cc1
photoluminescence quantum yield (in C1CCCCC1): 0.86 | photoluminescence quantum yield (in C1CCOC1): 0.9 | photoluminescence quantum yield (in CC#N): 0.73 | photoluminescence quantum yield (in CC(C)=O): 0.85 | photoluminescence quantum yield (in CCCCCl): 0.91 | photoluminescence quantum yield (in CCCCOCCCC): 0.88 | photoluminescence quantum yield (in CN(C)C=O): 0.78

SMILES: N#Cc1cc(C#Cc2c(F)c(F)nc(F)c2F)c(C#Cc2c(F)c(F)nc(F)c2F)cc1C#N
photoluminescence quantum yield (in CC#N): 0.49

SMILES: Cc1cc(N2c3ccccc3C(C)(C)c3ccccc32)ccc1-c1cc(-c2ccc(N3c4ccccc4C(C)(C)c4ccccc43)cc2C)ncn1
photoluminescence quantum yield (in O=P(c1ccccc1)(c1ccccc1)c1ccccc1Oc1ccccc1P(=O)(c1ccccc1)c1ccccc1): 0.71

Second part, the molecule after the results:

photoluminescence quantum yield (in ClC(Cl)Cl): 0.39
SMILES: CC(C)(C)NC(=O)c1cc2ccc3cccc4ccc(c1C(=O)NC(C)(C)C)c2c34

photoluminescence quantum yield (in ClCCl): 0.05
SMILES: Cn1c(=O)cc(C(=O)c2ccccc2)c2sc(-c3ccc(N(c4ccccc4)c4ccccc4)cc3)cc21

photoluminescence quantum yield (in ClC(Cl)Cl): 0.36 | photoluminescence quantum yield (in ClCCl): 0.36
SMILES: COc1ccc(C2=[N+]3C(=Nc4c(-c5ccccc5)cc(-c5ccc(OC)cc5)n4[B-]3(F)F)C(c3ccccc3)=C2)cc1

photoluminescence quantum yield (in CC#N): 0.47
SMILES: c1ccc(-[c+]2c3ccccc3oc3ccccc32)cc1

photoluminescence quantum yield (in C1CCCCC1): 0.86
SMILES: Nc1ccc2cc3ccccc3cc2c1

photoluminescence quantum yield (in ClCCl): 0.97
SMILES: O=P1(c2ccccc2)c2cccc3c4c5ccccc5c5ccccc5c4c4ccc1n4c23 (stereo not drawn)

photoluminescence quantum yield (in ClCCl): 0.57
SMILES: CCc1cccc(CC)c1-c1c2ccccc2c(C#Cc2ccccc2)c2cc3ccccc3cc12

photoluminescence quantum yield (in C1COCCO1): 0.54 | photoluminescence quantum yield (in CN(C)C=O): 0.353 | photoluminescence quantum yield (in CO): 0.035 | photoluminescence quantum yield (in CS(C)=O): 0.013 | photoluminescence quantum yield (in c1ccccc1): 0.72
SMILES: O=C1/C(=C2\Sc3ccccc3C2=O)Sc2ccccc21

photoluminescence quantum yield (in CO): 0.68
SMILES: O=C(O)CCCc1ccc2ccc3cccc4ccc1c2c34

photoluminescence quantum yield (in ClCCl): 0.32
SMILES: COc1ccc(C#Cc2nc3ccccc3nc2-c2csc(OC)c2)cc1

photoluminescence quantum yield (in CC#N): 0.81
SMILES: CC1=[N+]2C(=C(c3ccccc3)c3c4c(c(C)n3[B-]2(F)F)C2CCC4CC2)C2=C1C1CCC2CC1

photoluminescence quantum yield (in ClCCl): 0.82
SMILES: O=c1c2cccc3cccc(c32)c2nc3c(F)c(F)c(F)c(F)c3n12

photoluminescence quantum yield (in ClC(Cl)Cl): 0.714
SMILES: CC(C)(C)c1ccc2oc3nc4oc5cc(-n6c7ccccc7c7ccccc76)ccc5c4cc3c2c1

photoluminescence quantum yield (in CCO): 0.68 | photoluminescence quantum yield (in ClC(Cl)Cl): 0.23
SMILES: CCOc1ccc2c(-c3nc(-c4cccc(C)c4)no3)cc(=O)oc2c1

photoluminescence quantum yield (in CCO): 0.006
SMILES: CCOC(=O)c1cc(C(=O)OCC)c2ccccc2n1

photoluminescence quantum yield (in CC#N): 0.55
SMILES: c1ccc(-c2nc(-c3ccc(-c4nc(-c5ccccc5)c(-c5ccccc5)[nH]4)s3)[nH]c2-c2ccccc2)cc1

photoluminescence quantum yield (in C1CCCCC1): 0.84 | photoluminescence quantum yield (in CC#N): 0.85 | photoluminescence quantum yield (in CC(C)O): 0.81 | photoluminescence quantum yield (in CO): 0.92 | photoluminescence quantum yield (in CS(C)=O): 0.9 | photoluminescence quantum yield (in ClC(Cl)Cl): 0.89 | photoluminescence quantum yield (in c1ccccc1): 0.98
SMILES: CN(C)C(=O)c1ccc(-c2nc3ccc(N(C)C)cc3s2)cc1

photoluminescence quantum yield (in ClC(Cl)Cl): 0.78
SMILES: N#Cc1nc(N(Cc2ccccc2Cl)Cc2ccccc2Cl)c(C#N)nc1N(Cc1ccccc1Cl)Cc1ccccc1Cl

photoluminescence quantum yield (in CO): 0.17
SMILES: COc1ccc(-c2ccc3c(c2)nnn3C[C@H](N)C(=O)O)cc1

photoluminescence quantum yield (in C1CCCCC1): 0.09
SMILES: Oc1ccccc1

photoluminescence quantum yield (in ClCCl): 0.2
SMILES: O=[N+]([O-])c1ccc(O)c(-c2nc3c(c4c2-c2ccccc2CC4)-c2ccccc2CC3)c1

photoluminescence quantum yield (in ClCCl): 0.25
SMILES: C(=C\c1ncnc2ccccc12)/c1ccc(N(c2ccccc2)c2ccccc2)cc1

photoluminescence quantum yield (in ClCCl): 0.44
SMILES: C[Si]1(C)O[Si](C)(C)c2cc3nc4ccc([N+](=O)[O-])cc4c(-c4ccccc4)c3cc2[Si](C)(C)O1

photoluminescence quantum yield (in CCO): 0.0956 | photoluminescence quantum yield (in ClCCl): 0.152 | photoluminescence quantum yield (in O): 0.01
SMILES: N#CC(C#N)=Cc1ccc(-c2cccc(-c3nc4ccccc4s3)c2O)s1

photoluminescence quantum yield (in ClCCl): 0.43
SMILES: COc1ccc2cc(/C=C/C3=CC(c4ccccc4)=[O+][B-](F)(F)O3)ccc2c1

photoluminescence quantum yield (in ClC(Cl)Cl): 0.5
SMILES: O=c1c2cc3ccc4cccc5ccc(c2c(=O)n1-c1ccccc1)c3c45

photoluminescence quantum yield (in CCOC(C)=O): 0.95
SMILES: C[Si](C)(C)c1cc2c(cc3ccc4cccc5ccc2c3c45)[nH]1

photoluminescence quantum yield (in CC#N): 0.114
SMILES: N#C/C(=C\c1ccc(C#N)cc1)c1nc(-c2ccc(Cl)cc2)c(-c2ccccc2)s1
